Values joined by “and” are separate entries in the source; they are usually repeats but may differ in a detail not shown here. Identical values can stand only once. Toxic doses and inconclusive results are not listed. Rule for the calls: active = survival T/C of 150% or more; inactive = T/C below 125% in these data.
System: P388 leukemia ip, CD2F1 mice, survival T/C
Test: NCI In Vivo Anticancer Drug Screen. Data for tumor model P388 Leukemia (intraperitoneal) in CD2F1 (CDF1) mice
Conditions: endpoint: median survival time, higher = longer survival
Procedure, shortened: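 Mice carrying the transplanted tumor received test compound or vehicle. Survival was recorded in each group, and the value is the treated-group measurement divided by that of the vehicle-treated control group.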

[1] = dose: 100.0 mg/kg/injection, schedule: Q04DX003 (ip), vehicle: saline with Tween-80
[2] = dose: 60.0 mg/kg/injection, schedule: Q01DX005 (ip), vehicle: saline with Tween-80
[3] = dose: 120.0 mg/kg/injection, schedule: Q01DX005 (ip), vehicle: saline with Tween-80
[4] = dose: 240.0 mg/kg/injection, schedule: Q01DX005 (ip), vehicle: saline with Tween-80
[5] = dose: 25.0 mg/kg/injection, schedule: Q01DX005 (ip), vehicle: Klucel (hydroxypropylcellulose) (HPC)
[6] = dose: 50.0 mg/kg/injection, schedule: Q01DX005 (ip), vehicle: Klucel (hydroxypropylcellulose) (HPC)
[7] = dose: 100.0 mg/kg/injection, schedule: Q01DX005 (ip), vehicle: Klucel (hydroxypropylcellulose) (HPC)
[8] = dose: 200.0 mg/kg/injection, schedule: Q01DX005 (ip), vehicle: Klucel (hydroxypropylcellulose) (HPC)
[9] = dose: 100.0 mg/kg/injection, schedule: Q01DX009 (ip), vehicle: saline with Tween-80
[10] = dose: 400.0 mg/kg/injection, schedule: Q01DX009 (ip), vehicle: saline with Tween-80
[11] = dose: 25.0 mg/kg/injection, schedule: Q01DX009 (ip), vehicle: saline with Tween-80
[12] = dose: 50.0 mg/kg/injection, schedule: Q01DX009 (ip), vehicle: saline with Tween-80
[13] = dose: 60.0 mg/kg/injection, schedule: Q01DX005 (ip), vehicle: Klucel (hydroxypropylcellulose) (HPC)
[14] = dose: 120.0 mg/kg/injection, schedule: Q01DX005 (ip), vehicle: Klucel (hydroxypropylcellulose) (HPC)
[15] = dose: 240.0 mg/kg/injection, schedule: Q01DX005 (ip), vehicle: Klucel (hydroxypropylcellulose) (HPC)
[16] = dose: 3.13 mg/kg/injection, schedule: Q01DX009 (ip), vehicle: saline with Tween-80
[17] = dose: 6.25 mg/kg/injection, schedule: Q01DX009 (ip), vehicle: saline with Tween-80
[18] = dose: 12.5 mg/kg/injection, schedule: Q01DX009 (ip), vehicle: saline with Tween-80
[19] = dose: 25.0 mg/kg/injection, schedule: Q04DX003 (ip), vehicle: saline with Tween-80
[20] = dose: 50.0 mg/kg/injection, schedule: Q04DX003 (ip), vehicle: saline with Tween-80
[21] = dose: 200.0 mg/kg/injection, schedule: Q04DX003 (ip), vehicle: saline with Tween-80

Measured: T/C

CCC(C)C(NC(=O)OCc1ccccc1)C(=O)ON1C(=O)CCC1=O (stereo not given)
inactive: dose: 66.0 mg/kg/injection, schedule: Q04DX003 (ip), vehicle: saline with Tween-80 100 % of control | [1] 104 % of control | dose: 150.0 mg/kg/injection, schedule: Q04DX003 (ip), vehicle: saline with Tween-80 109 % of control

O=C(Nc1ccc(C(=O)O)cc1)Nc1cc(C(F)(F)F)ccc1Cl
inactive: [2] 105 % of control | [3] 105 % of control | [4] 105 % of control

Cc1ccc(C(=O)C=C(C(F)(F)F)C(F)(F)F)cc1
inactive: dose: 6.25 mg/kg/injection, schedule: Q01DX009 (ip), vehicle: saline 100 % of control | dose: 6.25 mg/kg/injection, schedule: Q04DX003 (ip), vehicle: saline 95 % of control | dose: 12.5 mg/kg/injection, schedule: Q01DX009 (ip), vehicle: saline 100 % of control | dose: 12.5 mg/kg/injection, schedule: Q04DX003 (ip), vehicle: saline 95 % of control | dose: 25.0 mg/kg/injection, schedule: Q01DX009 (ip), vehicle: saline 109 % of control | dose: 25.0 mg/kg/injection, schedule: Q04DX003 (ip), vehicle: saline 104 % of control

COC(c1ccccc1)C(Br)c1ccccc1 (stereo not given)
inactive: dose: 100.0 mg/kg/injection, schedule: Q01DX001 (ip), vehicle: saline with Tween-80 104 % of control | dose: 200.0 mg/kg/injection, schedule: Q01DX001 (ip), vehicle: saline with Tween-80 95 % of control | dose: 400.0 mg/kg/injection, schedule: Q01DX001 (ip), vehicle: saline with Tween-80 104 % of control

CCN(CC)CCOC(=O)c1c(C)oc2cc3c(C(=O)OCCN(CC)CC)c(C)oc3cc12
inactive: [5] 98 % of control | [6] 92 % of control | [7] 94 % of control | [8] 113 % of control

CC(=O)Nc1cc(C)ccc1O
inactive: [9] 95 % of control | dose: 200.0 mg/kg/injection, schedule: Q01DX009 (ip), vehicle: saline with Tween-80 100 % of control | [10] 95 % of control

CC(C)(C)N(O)c1cccc(P(=O)(c2ccccc2)c2ccccc2)c1
inactive: [11] 108 % of control | [12] 94 % of control | [9] 92 % of control

COC(=O)NC1C(C)OC(OC2C/C=C(/C)C3C=CC4C(OC5CC(OC6CC(OC7CC(O)C(O)C(C)O7)C(OC7CC(O)C(OC)C(C)O7)C(C)O6)C(O)C(C)O5)C(C)CC(C)C4C3(C)/C(O)=C3\C(=O)OC4(CC(C)C(CO)=CC4/C=C\2C)C3=O)CC1(C)[N+](=O)[O-] (stereo not given)
inactive: dose: 7.5 mg/kg/injection, schedule: Q01DX009 (ip), vehicle: saline 106 % of control | dose: 15.0 mg/kg/injection, schedule: Q01DX009 (ip), vehicle: saline 115 % of control and 122 % of control | dose: 30.0 mg/kg/injection, schedule: Q01DX009 (ip), vehicle: saline 121 % of control

NC(C(=O)O)C(N)C(=O)O (stereo not given)
inactive: [9] 90 % of control | [10] 100 % of control

Cc1cc(OC(=O)c2c(-c3c(Cl)cccc3Cl)noc2C)n(-c2ccc(NC(=O)c3c(-c4c(Cl)cccc4Cl)noc3C)cc2)n1
inactive: dose: 50.0 mg/kg/injection, schedule: Q01DX009 (ip), vehicle: saline 93 % of control | dose: 100.0 mg/kg/injection, schedule: Q01DX009 (ip), vehicle: saline 89 % of control | dose: 200.0 mg/kg/injection, schedule: Q01DX009 (ip), vehicle: saline 88 % of control

COc1ccc(C2CC(C)(OC)Oc3cc4c(cc32)OCO4)cc1 (stereo not given)
inactive: dose: 100.0 mg/kg/injection, schedule: Q01DX001 (ip), vehicle: Klucel (hydroxypropylcellulose) (HPC) 100 % of control | dose: 200.0 mg/kg/injection, schedule: Q01DX001 (ip), vehicle: Klucel (hydroxypropylcellulose) (HPC) 94 % of control

CN1C(=O)c2ccccc2C2(C1=O)C(C#N)=C(N)Oc1c2c2ccccc2c(=O)n1C (stereo not given)
inactive: [13] 99 % of control | [14] 95 % of control | [15] 88 % of control

CSC1=NSC(c2ccccc2)=C(c2ccccc2)S1
inactive: [2] 111 % of control | [3] 122 % of control | [4] 119 % of control

c1ccc2nc3ccccc3nc2c1
inactive: [5] 109 % of control | [6] 104 % of control | [7] 104 % of control | [8] 104 % of control

Cc1cccc(-c2nnc(N)o2)c1[N+](=O)[O-]
inactive: [2] 108 % of control | [3] 108 % of control | [4] 101 % of control

CSC(=S)NN=C1CCCCC1
inactive: dose: 0.78 mg/kg/injection, schedule: Q01DX009 (ip), vehicle: saline with Tween-80 97 % of control | dose: 1.56 mg/kg/injection, schedule: Q01DX009 (ip), vehicle: saline with Tween-80 108 % of control | [16] 105 % of control | [17] 98 % of control | [18] 113 % of control

CCC(=O)c1ccc(NC(=O)Nc2ncccn2)cc1
inactive: [13] 86 % of control | [14] 89 % of control | [15] 95 % of control

COCCn1c(=N)c(C(=O)OC)nc2c3ccccc3ccc21
inactive: dose: 50.0 mg/kg/injection, schedule: Q01DX005 (ip), vehicle: saline with Tween-80 104 % of control | dose: 100.0 mg/kg/injection, schedule: Q01DX005 (ip), vehicle: saline with Tween-80 107 % of control | dose: 200.0 mg/kg/injection, schedule: Q01DX005 (ip), vehicle: saline with Tween-80 101 % of control

COc1ccc(OC(C)C(=O)O)cc1 (stereo not given)
inactive: [6] 101 % of control | [7] 98 % of control | [8] 95 % of control

Cc1cccc(C)c1NC(=S)NC(=O)c1cccc(Cl)c1
inactive: [5] 94 % of control | [6] 92 % of control | [7] 97 % of control

O=C1CN(/N=C\c2ccc([N+](=O)[O-])o2)C(=O)N1
inactive: [11] 100 % of control | [19] 110 % of control | [12] 100 % of control | [20] 110 % of control | [9] 109 % of control | [1] 105 % of control

COc1ccc2nc(NC(=O)C(=O)C(C)C(=O)c3ccc(Cl)cc3)sc2c1 (stereo not given)
inactive: [2] 108 % of control | [3] 98 % of control | [4] 105 % of control

CC1=C/C(=N/N=c2\ccn(O)cc2C)C=CC1=N
inactive: [16] 100 % of control | [17] 95 % of control | [18] 104 % of control | [11] 98 % of control

Cc1cnnc2c3ccccc3nn12
inactive: [6] 99 % of control | [7] 101 % of control | [8] 101 % of control

CCCCCCC(C)NN (stereo not given)
inactive: [1] 86 % of control

C=C1CC2(CCOc3ccccc32)OC1=O (stereo not given)
inactive: [19] 105 % of control | [20] 115 % of control | [1] 108 % of control and 117 % of control | [21] 90 % of control

Cc1nc2ccccc2c2c(N)cccc12
inactive: [5] 105 % of control | [6] 102 % of control | [7] 98 % of control | [8] 105 % of control

CC(/C=C/c1cccc(C)c1)=N\NC(N)=S
inactive: dose: 3.75 mg/kg/injection, schedule: Q01DX005 (ip), vehicle: Klucel (hydroxypropylcellulose) (HPC) 106 % of control | dose: 7.5 mg/kg/injection, schedule: Q01DX005 (ip), vehicle: Klucel (hydroxypropylcellulose) (HPC) 105 % of control | dose: 30.0 mg/kg/injection, schedule: Q01DX005 (ip), vehicle: Klucel (hydroxypropylcellulose) (HPC) 122 % of control

O=C(C1=Cc2ccccc2OC1)N1CCN(c2cccc(Cl)c2)CC1
inactive: [1] 98 % of control | [21] 102 % of control | dose: 400.0 mg/kg/injection, schedule: Q04DX003 (ip), vehicle: saline with Tween-80 93 % of control

Cc1cccc2nccn12
inactive: [17] 97 % of control | [18] 95 % of control | [11] 97 % of control | [12] 100 % of control

— PubChem BioAssay AID330 (DTP/NCI, 2004)
